The source of these data is PMC9841523 (Journal of Medicinal Chemistry, 2022).

One assay addresses T1, EGFR (Homo sapiens, UniProt P00533).
T1 construct: MCF7 cells were exposed to; endogenous in cells; host or cells: MCF7
Kind of assay: KiNativ kinase panel. The class given is cell-based. As to conditions: 1 μM, MCF-7 Cells.

The test system of a further assay is TAO1, TAO3. Kind of assay: KiNativ kinase panel. As to conditions: 1 μM, MCF-7 Cells, Lys2. Type of assay: cell-based, human.
Another assay addresses T2, MAP2K7 (Homo sapiens, UniProt O14733).
T2 construct: MCF7 cells were exposed to; endogenous in cells; host or cells: MCF7
The experiment in a line: KiNativ kinase panel. The class given is cell-based. The settings on record: 1 μM; MCF-7 Cells; Lys2; DVKPSNILLDER

For assay [1], the system named is ZC1/HGK, ZC2/TNIK, ZC3/MINK. Kind of assay: KiNativ kinase panel. The settings on record: 1 μM, MCF-7 Cells, Lys2. Type of assay: cell-based, human.
The target of a further assay is T3, MAP4K3 (Homo sapiens, UniProt Q8IVH8).
T3 construct: MCF7 cells were exposed to; endogenous in cells; host or cells: MCF7
T3 sequence (Q8IVH8 1-894): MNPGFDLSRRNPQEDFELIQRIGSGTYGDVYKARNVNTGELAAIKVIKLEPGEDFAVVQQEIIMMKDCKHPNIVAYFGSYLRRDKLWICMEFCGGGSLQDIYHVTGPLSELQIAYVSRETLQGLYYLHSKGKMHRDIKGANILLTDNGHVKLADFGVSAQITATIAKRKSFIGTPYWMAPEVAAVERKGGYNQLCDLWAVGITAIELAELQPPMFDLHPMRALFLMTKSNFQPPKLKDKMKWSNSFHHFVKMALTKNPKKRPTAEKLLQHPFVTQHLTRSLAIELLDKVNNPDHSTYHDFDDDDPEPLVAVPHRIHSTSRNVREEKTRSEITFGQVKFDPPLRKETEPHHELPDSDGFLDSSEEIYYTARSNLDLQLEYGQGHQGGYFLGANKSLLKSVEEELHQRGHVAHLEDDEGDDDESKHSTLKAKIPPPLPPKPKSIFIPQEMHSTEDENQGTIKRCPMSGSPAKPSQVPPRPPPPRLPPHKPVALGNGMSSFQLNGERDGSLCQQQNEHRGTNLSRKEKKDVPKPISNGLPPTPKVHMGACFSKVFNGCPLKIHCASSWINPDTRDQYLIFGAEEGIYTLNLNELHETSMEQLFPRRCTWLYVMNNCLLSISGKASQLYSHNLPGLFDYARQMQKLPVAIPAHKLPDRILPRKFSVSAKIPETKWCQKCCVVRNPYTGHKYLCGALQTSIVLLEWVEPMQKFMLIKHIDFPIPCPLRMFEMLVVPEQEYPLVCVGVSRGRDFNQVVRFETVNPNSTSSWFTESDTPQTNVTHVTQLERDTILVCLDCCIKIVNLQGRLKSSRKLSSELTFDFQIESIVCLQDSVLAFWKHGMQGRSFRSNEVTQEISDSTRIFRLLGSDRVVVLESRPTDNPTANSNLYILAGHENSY
The experiment in a line: KiNativ kinase panel. As to conditions: 1 μM, MCF-7 Cells. The class given is cell-based.

The next assay has as its target T4, PI3K-ALPHA (Homo sapiens, UniProt P42336).
T4 construct: purchased BPS lot #110809
The experiment in a line: Nanosyn Lipid Kinase screen. The class given is biochemical. On the procedure:
(§1) complex formation) controls.
(§2) Nanosyn Lipid Kinase screen. Biochemical inhibition of lipid and related protein kinases was determined by Nanosyn (Santa Clara, CA). […]
(§3) was determined by detection of fluorescent substrates using a microfluidic electrophoresis mobility shift assay with a LabChip3000 instrument (Caliper/PerkinElmer). Bodipy labeled phosphatidylinositol 4,5 phosphate (FL-PIP2) (Echelon Biosciences, Salt Lake City, Utah) with 1,2-dioctanoyl-sn-glycero-3-phospho-L-serine (PS) (Avanti Polar Lipids (Alabaster, AL) was […]
(§4) of DNA-PK (Promega, Cat#V4106) on a peptide/dsDNA complex was assayed by detection of ADP formation using ADP-Glo (Promega). Kinase reactions were assembled in 384 well plates in a total volume of 20 µL as follows. For PI3K isoforms, the kinase protein was pre-diluted to 2x concentration in the assay buffer (50 mM HEPES, pH 7.5, 1 mM DTT, 5 mM MgCl 2, 0.01% […]
(§5) well plate (10 µL per well). Compounds were serially pre-diluted in DMSO and added to the protein samples by acoustic dispensing (200 nL, Labcyte Echo). Concentration of DMSO was equalized to 1% in all samples. All test compounds were tested at 12 concentrations, 3x dilution intervals. The control samples (0%-inhibition in the absence of inhibitor, DMSO only) and 100%-inhibition (in the absence of enzyme) were assembled in replicates of four and were used to calculate %-inhibition in the presence of compounds. After 30 min of pre-incubation with compounds, the reactions were initiated by addition of 10 µL of FL-PIP2/PS substrate (10 µM […]
(§6) (PI3Kα,β), 0.5 nM (PI3Kδ) and 10 nM (PI3Kγ). Final concentration of ATP was 100 µM.
(§7) Following incubation, the reactions were quenched by addition of 50 µL of termination buffer (100 mM HEPES, pH 7.5,

In a further assay the target is T5, mTORC1 (Homo sapiens, UniProt P42345+P62942).
T5 construct: purchased BPS lot # 150818-A
Kind of assay: Nanosyn Lipid Kinase screen. Type of assay: biochemical. On the procedure:
as §1, §2, §3, §4, §5, §6, §7

In the next assay the target is T6, PI3K-BETA (Homo sapiens, UniProt P42338).
T6 construct: purchased Carna lot # 12CBS-0359H
Kind of assay: Nanosyn Lipid Kinase screen. The class given is biochemical. On the procedure:
as §1, §2, §3, §4, §5, §6, §7

In another assay the target is T7, PI3K-DELTA (Homo sapiens, UniProt O00329).
T7 construct: purchased Carna lot#09CBS-1198D
T7 sequence (O00329 whole entry, species assumed): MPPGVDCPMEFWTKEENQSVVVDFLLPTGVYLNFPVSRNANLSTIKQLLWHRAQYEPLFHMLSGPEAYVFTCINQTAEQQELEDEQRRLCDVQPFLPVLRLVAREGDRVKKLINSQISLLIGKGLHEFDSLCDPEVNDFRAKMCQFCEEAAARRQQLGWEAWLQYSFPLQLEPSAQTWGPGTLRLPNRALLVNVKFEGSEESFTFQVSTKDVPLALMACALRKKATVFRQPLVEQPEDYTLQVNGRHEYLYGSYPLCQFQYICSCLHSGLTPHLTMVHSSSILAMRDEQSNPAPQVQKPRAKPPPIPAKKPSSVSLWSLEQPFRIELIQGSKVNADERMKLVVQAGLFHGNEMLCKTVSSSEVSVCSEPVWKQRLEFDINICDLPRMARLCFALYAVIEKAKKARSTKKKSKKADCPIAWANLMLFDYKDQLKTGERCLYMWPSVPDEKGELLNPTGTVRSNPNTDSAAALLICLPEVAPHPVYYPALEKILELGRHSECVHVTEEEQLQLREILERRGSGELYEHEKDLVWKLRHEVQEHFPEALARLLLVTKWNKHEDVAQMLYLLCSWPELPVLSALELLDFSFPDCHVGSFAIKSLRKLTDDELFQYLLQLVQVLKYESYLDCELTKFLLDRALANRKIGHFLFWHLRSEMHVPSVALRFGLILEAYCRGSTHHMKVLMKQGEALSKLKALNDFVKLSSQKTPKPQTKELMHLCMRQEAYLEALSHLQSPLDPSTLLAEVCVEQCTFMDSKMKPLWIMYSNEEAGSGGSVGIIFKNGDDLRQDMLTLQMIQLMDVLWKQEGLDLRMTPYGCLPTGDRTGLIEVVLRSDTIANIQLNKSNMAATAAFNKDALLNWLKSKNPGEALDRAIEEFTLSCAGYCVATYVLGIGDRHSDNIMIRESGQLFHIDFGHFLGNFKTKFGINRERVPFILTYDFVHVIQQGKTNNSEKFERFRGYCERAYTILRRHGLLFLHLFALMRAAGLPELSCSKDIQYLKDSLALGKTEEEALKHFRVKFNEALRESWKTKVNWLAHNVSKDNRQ
T7 sequence (P27986 whole entry partner, species assumed): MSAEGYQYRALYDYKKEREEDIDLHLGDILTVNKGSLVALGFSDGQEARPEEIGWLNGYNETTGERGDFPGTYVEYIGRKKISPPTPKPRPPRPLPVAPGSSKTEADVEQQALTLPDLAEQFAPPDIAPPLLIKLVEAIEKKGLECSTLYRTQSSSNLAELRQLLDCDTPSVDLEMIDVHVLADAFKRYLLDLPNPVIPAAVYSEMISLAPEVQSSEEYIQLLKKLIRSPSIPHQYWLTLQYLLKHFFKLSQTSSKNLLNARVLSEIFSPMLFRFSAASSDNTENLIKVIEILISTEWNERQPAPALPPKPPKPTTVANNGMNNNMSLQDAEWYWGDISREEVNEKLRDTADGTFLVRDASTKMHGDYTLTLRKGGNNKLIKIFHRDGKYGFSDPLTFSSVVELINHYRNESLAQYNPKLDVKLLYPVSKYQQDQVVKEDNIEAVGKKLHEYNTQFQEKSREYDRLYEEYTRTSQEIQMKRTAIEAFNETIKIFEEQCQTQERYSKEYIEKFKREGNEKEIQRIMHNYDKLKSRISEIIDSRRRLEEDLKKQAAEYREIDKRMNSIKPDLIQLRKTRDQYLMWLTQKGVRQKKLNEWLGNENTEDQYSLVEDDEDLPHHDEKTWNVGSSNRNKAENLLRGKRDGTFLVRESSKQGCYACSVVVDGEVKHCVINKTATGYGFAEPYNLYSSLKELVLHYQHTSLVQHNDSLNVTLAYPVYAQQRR
T7 sequence (P62942 whole entry partner, species assumed): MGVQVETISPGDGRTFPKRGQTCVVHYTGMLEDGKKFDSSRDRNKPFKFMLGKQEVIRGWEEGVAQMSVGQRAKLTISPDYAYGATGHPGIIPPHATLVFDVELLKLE
Kind of assay: Nanosyn Lipid Kinase screen. The class given is biochemical. As to the method:
as §1, §2, §3, §4, §5, §6, §7

The target in another assay is T8, PI3K-GAMMA (Homo sapiens, UniProt P48736).
T8 construct: purchased Thermo Fisher lot#1716438D
T8 sequence (P48736 whole entry, species assumed): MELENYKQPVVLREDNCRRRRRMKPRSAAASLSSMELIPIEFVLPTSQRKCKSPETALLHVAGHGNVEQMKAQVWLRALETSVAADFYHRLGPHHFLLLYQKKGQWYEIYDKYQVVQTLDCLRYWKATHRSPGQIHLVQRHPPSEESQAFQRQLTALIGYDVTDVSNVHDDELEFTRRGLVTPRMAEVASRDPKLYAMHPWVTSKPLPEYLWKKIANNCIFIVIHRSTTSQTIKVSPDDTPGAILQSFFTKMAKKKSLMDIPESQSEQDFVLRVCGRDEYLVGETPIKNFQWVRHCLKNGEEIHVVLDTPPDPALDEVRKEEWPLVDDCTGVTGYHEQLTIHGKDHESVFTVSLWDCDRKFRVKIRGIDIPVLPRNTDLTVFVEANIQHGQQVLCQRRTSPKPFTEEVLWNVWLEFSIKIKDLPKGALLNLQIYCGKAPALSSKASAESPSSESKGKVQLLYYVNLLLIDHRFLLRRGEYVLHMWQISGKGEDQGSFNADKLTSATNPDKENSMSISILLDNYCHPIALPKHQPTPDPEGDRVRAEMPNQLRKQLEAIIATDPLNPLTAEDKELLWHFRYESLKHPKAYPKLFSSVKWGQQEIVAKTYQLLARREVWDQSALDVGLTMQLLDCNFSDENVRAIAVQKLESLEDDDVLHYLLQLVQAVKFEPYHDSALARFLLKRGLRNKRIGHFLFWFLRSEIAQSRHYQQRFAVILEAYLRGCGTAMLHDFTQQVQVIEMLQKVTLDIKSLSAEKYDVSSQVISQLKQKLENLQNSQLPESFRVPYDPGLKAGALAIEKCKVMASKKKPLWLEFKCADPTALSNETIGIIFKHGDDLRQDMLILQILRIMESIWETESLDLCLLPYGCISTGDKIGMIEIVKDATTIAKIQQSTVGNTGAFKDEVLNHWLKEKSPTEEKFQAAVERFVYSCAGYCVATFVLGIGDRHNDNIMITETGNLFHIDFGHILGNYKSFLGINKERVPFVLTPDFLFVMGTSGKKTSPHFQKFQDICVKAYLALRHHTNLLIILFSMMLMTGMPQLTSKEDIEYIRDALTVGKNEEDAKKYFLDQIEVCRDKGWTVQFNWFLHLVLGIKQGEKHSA
T8 sequence (P62942 whole entry partner, species assumed): as the sequence (P62942 whole entry partner, species assumed) above
The experiment in a line: Nanosyn Lipid Kinase screen. The class given is biochemical. As to the method: as §1, §2, §3, §4, §5, §6, §7

A further assay deals with T9, MST3 (Homo sapiens, UniProt Q9Y6E0).
T9 construct: purchased ActivX Biosciences (KiNativ)
T9 sequence (Q9Y6E0 whole entry): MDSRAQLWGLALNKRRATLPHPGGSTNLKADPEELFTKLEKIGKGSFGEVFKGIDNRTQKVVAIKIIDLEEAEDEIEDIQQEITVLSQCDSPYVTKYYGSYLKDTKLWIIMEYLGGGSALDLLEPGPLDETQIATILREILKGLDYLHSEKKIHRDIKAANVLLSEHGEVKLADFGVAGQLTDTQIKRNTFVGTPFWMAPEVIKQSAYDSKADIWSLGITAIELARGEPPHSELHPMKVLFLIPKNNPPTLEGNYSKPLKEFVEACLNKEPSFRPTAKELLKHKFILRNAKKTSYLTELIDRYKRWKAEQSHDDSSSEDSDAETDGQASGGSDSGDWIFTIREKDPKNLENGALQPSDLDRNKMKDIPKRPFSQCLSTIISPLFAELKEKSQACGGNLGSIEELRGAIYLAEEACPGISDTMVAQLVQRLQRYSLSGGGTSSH
Kind of assay: KiNativ kinase panel. The class given is cell-based. As to conditions: 1 μM; MCF-7 Cells; Lys2; DIKAANVLLSEHGEVK

A further assay deals with MST4, YSK1. The experiment in a line: KiNativ kinase panel. The class given is cell-based, human. As to conditions: 1 μM, MCF-7 Cells, Lys2.

Each structure is given as a SMILES string. Read-outs that look alike come from different tables or passages of the source.

T1 sequence (P00533 25-1210): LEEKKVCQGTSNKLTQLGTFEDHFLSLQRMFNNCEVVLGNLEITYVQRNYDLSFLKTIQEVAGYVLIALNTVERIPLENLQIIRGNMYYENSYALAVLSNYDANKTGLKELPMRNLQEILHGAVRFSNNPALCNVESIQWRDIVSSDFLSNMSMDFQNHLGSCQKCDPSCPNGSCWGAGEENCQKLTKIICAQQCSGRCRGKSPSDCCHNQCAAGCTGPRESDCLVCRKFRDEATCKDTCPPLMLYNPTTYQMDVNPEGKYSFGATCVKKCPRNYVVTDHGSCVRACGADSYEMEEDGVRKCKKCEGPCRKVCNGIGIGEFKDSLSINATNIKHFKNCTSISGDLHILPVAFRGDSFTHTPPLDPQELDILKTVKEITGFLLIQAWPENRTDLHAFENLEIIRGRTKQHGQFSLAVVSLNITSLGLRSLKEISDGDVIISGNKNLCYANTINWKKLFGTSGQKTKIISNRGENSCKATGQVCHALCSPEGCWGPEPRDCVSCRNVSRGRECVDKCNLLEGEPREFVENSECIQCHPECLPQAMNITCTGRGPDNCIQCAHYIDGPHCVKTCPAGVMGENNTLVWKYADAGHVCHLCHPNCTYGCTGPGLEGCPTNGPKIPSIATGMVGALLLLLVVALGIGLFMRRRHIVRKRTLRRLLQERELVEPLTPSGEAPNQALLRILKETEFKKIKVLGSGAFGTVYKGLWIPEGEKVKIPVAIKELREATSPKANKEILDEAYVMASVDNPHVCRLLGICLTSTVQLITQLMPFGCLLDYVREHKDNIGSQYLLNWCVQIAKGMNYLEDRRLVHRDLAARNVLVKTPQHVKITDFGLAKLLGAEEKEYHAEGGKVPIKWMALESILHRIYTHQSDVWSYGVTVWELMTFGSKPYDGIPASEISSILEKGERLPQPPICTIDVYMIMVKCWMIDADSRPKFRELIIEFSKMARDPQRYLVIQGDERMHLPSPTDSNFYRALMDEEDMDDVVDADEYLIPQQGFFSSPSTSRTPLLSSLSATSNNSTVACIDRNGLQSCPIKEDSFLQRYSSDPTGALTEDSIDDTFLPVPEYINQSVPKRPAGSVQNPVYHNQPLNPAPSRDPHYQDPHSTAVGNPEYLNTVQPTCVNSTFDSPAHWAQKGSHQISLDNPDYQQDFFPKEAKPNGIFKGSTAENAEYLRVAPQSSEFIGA
T2 sequence (O14733 whole entry): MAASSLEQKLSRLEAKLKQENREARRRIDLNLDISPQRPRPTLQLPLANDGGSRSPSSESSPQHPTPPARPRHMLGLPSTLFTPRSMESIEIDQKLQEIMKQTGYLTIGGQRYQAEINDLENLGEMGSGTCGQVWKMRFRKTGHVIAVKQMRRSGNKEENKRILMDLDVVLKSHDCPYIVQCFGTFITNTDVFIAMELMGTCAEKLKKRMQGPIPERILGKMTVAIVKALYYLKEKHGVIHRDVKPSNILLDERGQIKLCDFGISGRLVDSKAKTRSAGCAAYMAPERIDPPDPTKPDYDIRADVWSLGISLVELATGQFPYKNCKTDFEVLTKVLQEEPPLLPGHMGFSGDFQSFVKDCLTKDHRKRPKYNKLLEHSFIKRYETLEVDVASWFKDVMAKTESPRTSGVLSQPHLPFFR

With `CO[C@H]1C[C@@H]2CC[C@@H](C)[C@@](O)(O2)C(=O)C(=O)N2CCCC[C@H]2C(=O)O[C@H]([C@H](C)C[C@@H]2CC[C@@H](OC(=O)NCCOCCOCCOCCOCCOCCOCCOCCOCCC(=O)N3CCc4cc(Cn5nc(-c6ccc7oc(N)nc7c6)c6c(N)ncnc65)ccc4C3)[C@H](OC)C2)C[C@@H](O)[C@H](C)/C=C(\C)[C@@H](O)[C@@H](OC)C(=O)[C@H](C)C[C@H](C)/C=C/C=C/C=C/1C` [compound 38], the “KiNativ Kinase Panel Data” value at EGFR (Activation Loop, […]) is given as -1.8; at EGFR (Lys1, IPVAIKELR), -7.4; in the assay with TAO1, TAO3 ([…]), -1.7; on MAP2K7 it was 20.9; in assay [1] ([…]) it was 8.5; on MAP4K3 (Lys1, NVNTGELAAIKVIK), 12.2. The “KiNativ Kinase Panel Data” value at MAP4K3 (Lys2, DIKGANILLTDNGHVK) is on record as -6.9; at MST3 it was 22.2; with MST4, YSK1 ([…]), 10.5. Besides, the IC50 is 41.2 nM against PI3K-ALPHA; 0.774 nM against mTORC1; greater than 1000 nM at PI3K-BETA; 95 nM at PI3K-DELTA; greater than 1000 nM at PI3K-GAMMA.
Take `CO[C@H]1C[C@@H]2CC[C@@H](C)[C@@](O)(O2)C(=O)C(=O)N2CCCC[C@H]2C(=O)O[C@H]([C@H](C)C[C@@H]2CC[C@@H](OC(=O)NCCOCCOCCOCCOCCOCCOCCOCCOCCC(=O)NCCS(=O)(=O)c3ccc(C(=O)N4CCOc5ccc(-c6ccc(N)nc6)cc5C4)c(C)c3F)[C@H](OC)C2)C[C@@H](O)[C@H](C)/C=C(\C)[C@@H](O)[C@@H](OC)C(=O)[C@H](C)C[C@H](C)/C=C/C=C/C=C/1C` [compound 40]: the “KiNativ Kinase Panel Data” value on EGFR (Activation Loop, LLGAEEKEYHAEGGKVPIK) is reported as -40.0; at EGFR (Lys1, IPVAIKELR) it was -27.8; in the assay with TAO1, TAO3 (DIKAGNILLTEPGQVK) it was -29.7; on MAP2K7 it was -14.8; in [1] (DIKGQNVLLTENAEVK), -13.4; at MAP4K3 (Lys1, NVNTGELAAIKVIK), -19.2. Moreover, the “KiNativ Kinase Panel Data” value on MAP4K3 (Lys2, DIKGANILLTDNGHVK) was 69.9; on MST3 it was 11.0; in the assay on MST4, YSK1 (DIKAANVLLSEQGDVK) it was -10.1. For the same compound, the IC50 at PI3K-ALPHA (Nanosyn, with FKBP12, read-out: PI3K-ALPHA IC50) was greater than 1000 nM; on mTORC1 (read-out: mTORC1 IC50, Nanosyn, with FKBP12), 0.473 nM; at PI3K-BETA (Nanosyn, with FKBP12) it was greater than 1000 nM; on PI3K-DELTA (Nanosyn, with FKBP12, read-out: PI3K-DELTA IC50), greater than 1000 nM; on PI3K-GAMMA (Nanosyn, with FKBP12, read-out: PI3K-GAMMA IC50), greater than 1000 nM.
